Laboratory results from ChEMBL document CHEMBL1201862, “PubChem BioAssay data set” (2004).
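In this assay, cells in 96-well plates receive the compound at five concentrations for 48 hours. Endpoints are linearly interpolated between the surrounding concentrations. GI50 is the concentration that inhibits growth by half.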 Calls of active or inactive are those of the source. Rule as the data show it: active = GI50 up to about 1.1 µM and inactive = higher.

Legend:
Test in all cases: growth of human tumour cells (NCI), 48 h
TK-10 = test system: TK-10
SF-295 = test system: SF-295
M14 = test system: M14
HOP-92 = test system: HOP-92
EKVX = test system: EKVX
SW-620 = test system: SW-620
HT-29 = test system: HT-29
M19-MEL = test system: M19-MEL
SF-268 = test system: SF-268
K562 = test system: K562
ACHN = test system: ACHN
SNB-75 = test system: SNB-75
IGROV-1 = test system: IGROV-1
HL-60 = test system: HL-60
RPMI-8226 = test system: RPMI-8226
NCI-H522 = test system: NCI-H522
SK-OV-3 = test system: SK-OV-3

For `COc1cc(/C=C\c2ccccc2)cc(OC)c1OC`, the GI50 (TK-10) was 3.94 µM (inactive), the GI50 (SF-295) was 2.18 µM (inactive) and the GI50 (M14) was 2.51 µM (inactive). For the same compound, the GI50 (HOP-92) was 3.53 µM (inactive), the GI50 (EKVX) was 6.01 µM (inactive) and the GI50 (SW-620) was 2.84 µM (inactive). For the same compound, the GI50 (HT-29) was 2.75 µM (inactive), the GI50 (M19-MEL) was 5.31 µM (inactive) and the GI50 (SF-268) was 6.55 µM (inactive). For the same compound, the GI50 (K562) was 0.514 µM (active), the GI50 (ACHN) was 6.98 µM (inactive) and the GI50 (SNB-75) was 2.1 µM (inactive). For the same compound, the GI50 (IGROV-1) was 4.65 µM (inactive), the GI50 (HL-60) was 1.75 µM (inactive) and the GI50 (RPMI-8226) was 4.18 µM (inactive). The GI50 (NCI-H522) was 2.67 µM (inactive).

In the case of `C=CC[P@@]1(=O)O[C@H](c2ccccc2)C(C)N1C(C)C` (stereo partly drawn), the GI50 (TK-10) is reported as > 100 µM (inactive), the GI50 (SF-295) is reported as > 100 µM (inactive) and the GI50 (SK-OV-3) is reported as > 100 µM (inactive). For the same compound, the GI50 (M14) was > 100 µM (inactive), the GI50 (EKVX) was > 100 µM (inactive) and the GI50 (SW-620) was > 100 µM (inactive). The GI50 (HT-29) was > 100 µM (inactive), the GI50 (M19-MEL) was > 100 µM (inactive) and the GI50 (SF-268) was > 100 µM (inactive). The GI50 (K562) was > 100 µM (inactive), the GI50 (ACHN) was > 100 µM (inactive) and the GI50 (SNB-75) was > 100 µM (inactive). The GI50 (IGROV-1) was > 100 µM (inactive), the GI50 (HL-60) was > 100 µM (inactive) and the GI50 (RPMI-8226) was > 100 µM (inactive).

In the case of `CC(c1ccc(Br)cc1)C(C(=O)O)C(=O)O` (stereo not drawn), the GI50 (TK-10) is reported as > 100 µM (inactive), the GI50 (SF-295) is reported as > 100 µM (inactive) and the GI50 (SK-OV-3) is reported as > 100 µM (inactive). The GI50 (M14) was > 100 µM (inactive), the GI50 (EKVX) was > 100 µM (inactive) and the GI50 (SW-620) was > 100 µM (inactive). The GI50 (HT-29) was > 100 µM (inactive), the GI50 (M19-MEL) was > 100 µM (inactive) and the GI50 (SF-268) was > 100 µM (inactive). The GI50 (K562) was > 100 µM (inactive), the GI50 (ACHN) was > 100 µM (inactive) and the GI50 (SNB-75) was > 100 µM (inactive). For the same compound, the GI50 (IGROV-1) was > 100 µM (inactive), the GI50 (HL-60) was > 100 µM (inactive) and the GI50 (RPMI-8226) was > 100 µM (inactive). The GI50 (NCI-H522) was > 100 µM (inactive).

For `O=S(=O)(O)c1ccc(/N=N/c2nc(C(F)(F)F)c(C(F)(F)F)[nH]2)cc1`, the GI50 (TK-10) was > 100 µM (inactive), the GI50 (SF-295) was 65.2 µM (inactive) and the GI50 (SK-OV-3) was > 100 µM (inactive). The GI50 (M14) was 20.8 µM (inactive), the GI50 (HOP-92) was 16.6 µM (inactive) and the GI50 (EKVX) was 43.5 µM (inactive). The GI50 (SW-620) was 41.5 µM (inactive), the GI50 (HT-29) was 77.1 µM (inactive) and the GI50 (M19-MEL) was 39.2 µM (inactive). The GI50 (SF-268) was 56.5 µM (inactive), the GI50 (K562) was 53.8 µM (inactive) and the GI50 (ACHN) was > 100 µM (inactive). The GI50 (SNB-75) was 75.9 µM (inactive), the GI50 (IGROV-1) was > 100 µM (inactive) and the GI50 (HL-60) was 32.1 µM (inactive). The GI50 (RPMI-8226) was > 100 µM (inactive).

With `CCCCCCCCCCCCCCCCCC(=O)NCC(COP(=O)(O)O)OCC` (stereo not drawn) the GI50 (TK-10) was 49.2 µM (inactive), the GI50 (SF-295) was 18.5 µM (inactive) and the GI50 (SK-OV-3) was 34.9 µM (inactive). The GI50 (M14) was 77.1 µM (inactive), the GI50 (HOP-92) was 13.7 µM (inactive) and the GI50 (EKVX) was 46.3 µM (inactive). For the same compound, the GI50 (SW-620) was > 100 µM (inactive), the GI50 (HT-29) was 68.7 µM (inactive) and the GI50 (M19-MEL) was > 100 µM (inactive). For the same compound, the GI50 (SF-268) was 22.3 µM (inactive), the GI50 (K562) was > 100 µM (inactive) and the GI50 (SNB-75) was 26.1 µM (inactive). For the same compound, the GI50 (IGROV-1) was 49.9 µM (inactive), the GI50 (HL-60) was > 100 µM (inactive) and the GI50 (RPMI-8226) was > 100 µM (inactive). The GI50 (NCI-H522) was 29.7 µM (inactive).

For `CN1/C(=C/C(=O)c2ccc(Cl)cc2)Nc2ccccc21`, the GI50 (SF-295) was 44.9 µM (inactive), the GI50 (M14) was 67.3 µM (inactive) and the GI50 (EKVX) was 23.1 µM (inactive). For the same compound, the GI50 (SW-620) was 55.5 µM (inactive), the GI50 (HT-29) was 50.7 µM (inactive) and the GI50 (M19-MEL) was 38.2 µM (inactive). For the same compound, the GI50 (SF-268) was 43.9 µM (inactive), the GI50 (K562) was 35.9 µM (inactive) and the GI50 (ACHN) was 33 µM (inactive). For the same compound, the GI50 (SNB-75) was > 100 µM (inactive), the GI50 (IGROV-1) was 38.6 µM (inactive) and the GI50 (HL-60) was 25.1 µM (inactive). The GI50 (RPMI-8226) was 31.8 µM (inactive) and the GI50 (NCI-H522) was 19.1 µM (inactive).

In the case of `N#C/C(=C1\SC(/N=N/c2ccc(Cl)cc2)C(=O)N1c1ccccc1)c1nc2ccccc2[nH]1` (stereo not drawn), the GI50 (TK-10) is reported as 24.9 µM (inactive), the GI50 (SF-295) is reported as 18.5 µM (inactive) and the GI50 (SK-OV-3) is reported as 15.5 µM (inactive). For the same compound, the GI50 (M14) was 20.1 µM (inactive), the GI50 (HOP-92) was 18.8 µM (inactive) and the GI50 (EKVX) was 47.3 µM (inactive). For the same compound, the GI50 (SW-620) was 98.6 µM (inactive), the GI50 (HT-29) was 63.8 µM (inactive) and the GI50 (M19-MEL) was 28.1 µM (inactive). For the same compound, the GI50 (SF-268) was > 100 µM (inactive), the GI50 (K562) was 14.1 µM (inactive) and the GI50 (ACHN) was 25.5 µM (inactive). The GI50 (SNB-75) was 25.9 µM (inactive), the GI50 (HL-60) was 45.6 µM (inactive) and the GI50 (NCI-H522) was 23.8 µM (inactive).
